Experimental data published in patent publication US20210261539A1, “COMPOUND HAVING BET INHIBITORY ACTIVITY AND PREPARATION METHOD AND USE THEREFOR” (Shanghai Haihe Pharmaceutical Co., Ltd., priority 2018, published 2021).

biological target: T1, BRD4 BD1 (Homo sapiens, UniProt O60885); test: HTRF in vitro enzyme activity assay, inhibition of BRD4 BD1 binding to acetylated H4 peptide; settings: IC50 values of the compounds against BRD4 BD1 binding; class symbols A/B/C
T1 construct: Protein BRD4 BD1 used in the assay was purchased from Active Motif (cat. 31380); purchased Active Motif 31380
Protocol: Effect Examples: In Vitro Enzyme Activity Assay
Half inhibitory activity (IC50) of the compounds of the invention against the bromodomain protein BRD4 BD1 was determined in the present Examples.
The compounds of the invention were tested for inhibitory activity against BRD4 BD1 with Homogeneous Time-Resolved Fluorescence (HTRF).
2. Reagents, Consumable Materials and Instruments:
Protein BRD4 BD1 used in the assay was purchased from Active Motif (cat. 31380); streptavidin XL-665 (#610SAXLA) and EPIgeneous Binding Domain Kit A (#62BDAPEG) were both purchased from Cisbio Bioassays; [Lys(5,8,12,16)Ac] H4(1-21)-biotin (#64989), [Lys(5,8,12,16)Ac]H4(1-25) were available from Anaspec; OTX015 and ABBV-075 were purchased from Selleckchem Co. The 384-well ProxiPlate (#6008280) was purchased from Perkinelmer Co. The Laboratory microplate reader (Envision 2104) was available from PerkinElmer Co. The water used in the assay was Millipore-Q pure water.
3. Formulation of the Compound
10 mM DMSO stock solution of the test compound was diluted to 1 mM in DMSO, and then diluted 10-fold in Binding Domain dilution buffer (purchased from Cisbio Bioassays) for use (DMSO concentration in the final system was 0.1%), including 5 concentrations in 1:5 gradient.
4. Assay Protocol: 1 Batch, 2 Repeats
1) 5 μL of test compound was transferred to 45 μL Binding Domain dilution buffer.
2) 2 μL of 1× compound (4 μL Binding Domain dilution buffer: positive control; 6 μL enzyme buffer (purchased from Cisbio Bioassays): negative control) was transferred to a reaction plate.
3) 4 μL of 5×BRD 4(1) was added to the reaction plate (30 nM in the final system).
4) 4 μL of 5×[Lys(5,8,12,16)Ac] H4(1-21)-biotin was added to the reaction plate, and the plate was covered with a film and incubated at 37° C. for 30 min.
5) A detection mixture of SA-XL665 (2×) and anti-H3K9me0-Eu(K) (2×) was prepared in detection buffer (purchased from Cisbio Bioassays).
6) 10 μL of detection mixture (2×) was added to each well, incubated at RT for 3 h. The mp value was read by microplate reader Envision with the following parameters: […]

`CCN1C(=O)C(C)N(C2CCCC2)c2nc(N3C(=O)c4ccccc4C3c3ccc(F)cc3)ccc21` (racemic) [Example A24, 4-cyclopentyl-1-ethyl-6-(1-(4-fluorophenyl)-3-oxoisoindolin-2-yl)-3-methyl-3,4-dihydropyrido[2,3-b]pyrazin-2(1H)-one] and `CC1C(=O)N(C)c2ccc(N3C(=O)c4ccccc4C3c3ccc(F)cc3)nc2N1C1CCCC1` (racemic) [Example A38, 4-cyclopentyl-6-(1-(4-fluorophenyl)-3-oxoisoindolin-2-yl)-1,3-dimethyl-3,4-dihydropyrido [2,3-b]pyrazin-2(1H)-one] fall in the same range of IC50: 0.01 to 0.1 µM for the first, 0.01 to 0.1 µM for the second.

`CCN1C(=O)C(C)N(C2CCCC2)c2nc(-n3c(=O)c4ccccc4n3-c3ccc(Cl)cc3)ccc21` (racemic) [Example A28, 6-(1-(4-chlorophenyl)-3-oxo-1,3-dihydro-2H-indazol-2-yl)-4-cyclopentyl-1-ethyl-3-methyl-3,4-dihydropyridine [2,3-b]pyrazin-2(1H)-one] and `CC1C(=O)N(C)c2ccc(-n3c(=O)c4ccccc4n3-c3ccc(Cl)cc3)nc2N1C1CC1` (single isomer, unassigned) [Example A12-P1, 6-(1-(4-chlorophenyl)-3-oxo-1,3-dihydro-2H-indazol-2-yl)-4-cyclopropyl-1,3-dimethyl-3,4-dihydropyrido[2,3-b]pyrazin-2(1H)-one] cannot be ordered by IC50: 0.01 to 0.1 µM for the first, ≤ 0.01 µM for the second.

`CC1C(=O)N(C)c2ccc(N3C(=O)c4ccccc4C3(O)c3ccc(Cl)cc3)nc2N1C1CC1` (racemic) [Example A30, 6-(1-(4-chlorophenyl)-1-hydroxy-3-oxoisoindolin-2-yl)-4-cyclopropyl-1,3-dimethyl-3,4-dihydropyrido [3,2-b]pyrazin-2(H)-one] and `CC1C(=O)N(C)c2ccc(N3C(=O)c4cccnc4C3(O)c3ccc(F)cc3F)nc2N1C1CC1` (single isomer, unassigned) [Example A13-P1, 4-cyclopropyl-6-(7-(2,4-difluorophenyl)-7-hydroxy-5-oxo-5,7-dihydro-6H-pyrrolo[3,4-b]pyridin-6-yl)-1,3-dimethyl-3,4-dihydropyrido[2,3-b]pyrazin-2(1H)-one] cannot be ordered by IC50: 0.01 to 0.1 µM for the first, ≤ 0.01 µM for the second.

`CC1C(=O)N(C)c2ccc(N3C(=O)c4ccccc4C3c3ccc(Cl)cc3)nc2N1CCO` (racemic) [Example A34, 6-(1-(4-chlorophenyl)-3-oxoisoindolin-2-yl)-4-(2-hydroxyethyl)-1,3-dimethyl-3,4-dihydropyrido [2,3-b]pyrazin-2(1H)-one] and `CC1C(=O)N(C)c2ccc(N3C(=O)c4ccccc4C3c3ccc(Cl)cc3)nc2N1Cc1ccccc1` (racemic) [Example A35, 4-benzyl-6-(1-(4-chlorophenyl)-3-oxoisoindolin-2-yl)-1,3-dimethyl-3,4-dihydropyrido [2,3-b]pyrazin-2(1H)-one] cannot be ordered by IC50: ≤ 0.01 µM for the first, 0.01 to 0.1 µM for the second.

First: CC1C(=O)N(C)c2ccc(N3C(=O)c4ccccc4C3Cc3ccccc3)nc2N1C1CC1 (racemic) [Example A37, 4-cyclopropyl-6-(1-benzyl-3-oxoisoindolin-2-yl)-1,3-dimethyl-3,4-dihydropyrido [2,3-b]pyrazin-2(1H)-one]
Second: CC1C(=O)N(C)c2ccc(N3C(=O)c4ccccc4C3c3ccccc3)nc2N1C1CC1 (single isomer, unassigned) [Example A11-P3, 4-cyclopropyl-1,3-dimethyl-6-(1-oxo-3-phenylisoindolin-2-yl)-3,4-dihydropyrido[2,3-b]pyrazin-2(1H)-one]
The IC50 of the first is higher: 0.1 to 1 µM for the first, ≤ 0.01 µM for the second.

`CC1C(=O)N(C)c2ccc(N3C(=O)c4ccccc4C3c3ccc(F)cc3)nc2N1C1CCCC1` (racemic) [Example A38-P2, 4-cyclopentyl-6-(1-(4-fluorophenyl)-3-oxoisoindolin-2-yl)-1,3-dimethyl-3,4-dihydropyrido [2,3-b]pyrazin-2(1H)-one] and `CC1C(=O)N(C)c2ccc(N3C(=O)CCC3c3ccccc3)nc2N1C1CCCC1` (single isomer, unassigned) [Example A2-P2-2, 4-cyclopentyl-1,3-dimethyl-6-(2-oxo-5-phenylpyrrolidin-1-yl)-3,4-dihydropyrido[2,3-b]pyrazin-2(1H)-one] cannot be ordered by IC50: ≤ 0.01 µM for the first, ≤ 0.01 µM for the second.

`CSc1cccc2c1C(=O)N(c1ccc3c(n1)N(C)[C@H](C)C(=O)N3C)C2c1cccnc1` (mixture of isomers) [Example A61, (3R)-1,3,4-trimethyl-6-(4-(methylthio)-3-oxo-1-(pyridin-3-yl)isoindolin-2-yl)-3,4-dihydropyrido[2,3-b]pyrazin-2(1H)-one] and `C[C@@H]1C(=O)N(C)c2ccc(N3C(=O)CCC3c3ccccc3)nc2N1C` (single isomer, unassigned) [Example A4-P2] cannot be ordered by IC50: ≤ 0.01 µM for the first, ≤ 0.01 µM for the second.

`CC1C(=O)N(C)c2cnc(-n3c(=O)c4ccccc4n3-c3ccc(Cl)cc3)nc2N1C1CC1` (single isomer, unassigned) [Compound A89-P3] and `CC1C(=O)N(C)c2ccc(N3C(=O)CCN3c3ccc(Cl)cc3)nc2N1C1CC1` (single isomer, unassigned) [Example A10-P2, 6-(2-(4-chlorophenyl)-5-oxopyrazolidin-1-yl)-4-cyclopropyl-1,3-dimethyl-3,4-dihydropyrido[2,3-b]pyrazin-2(1H)-one] cannot be ordered by IC50: ≤ 0.01 µM for the first, 0.01 to 0.1 µM for the second.

`CC1C(=O)N(C)c2ccc(N3C(=O)CCC3c3ccccc3)nc2N1C1CC1` (single isomer, unassigned) [Example A1-P2-2, 4-cyclopropyl-1,3-dimethyl-6-(2-oxo-5-phenyl-pyrrolidin-1-yl)-3,4-dihydropyrido[2,3-b]pyrazin-2(1H)-one] and `C[C@@H]1C(=O)N(C)c2ccc(N3C(=O)CCC3c3ccccc3)nc2N1C1CCOCC1` (single isomer, unassigned) [Example A5-P1] cannot be ordered by IC50: ≤ 0.01 µM for the first, ≤ 0.01 µM for the second.

`CC1C(=O)N(C)c2ccc(N3C(=O)CCC3c3ccccn3)nc2N1C1CC1` (single isomer, unassigned) [Example A6-P1, 4-cyclopropyl-1,3-dimethyl-6-(2-oxo-5-(pyridin-2-yl)pyrrolidin-1-yl)-3,4-dihydropyrido[2,3-b]pyrazin-2(1H)-one] and `CC1C(=O)N(C)c2ccc(N3C(=O)CCC3c3cccnc3)nc2N1C1CC1` (single isomer, unassigned) [Example A14-P1, 4-cyclopropyl-1,3-dimethyl-6-(2-oxo-5-(pyridin-3-yl)pyrrolidin-1-yl)-3,4-dihydropyrido[2,3-b]pyrazin-2(1H)-one] cannot be ordered by IC50: ≤ 0.01 µM for the first, ≤ 0.01 µM for the second.

`CC1C(=O)N(C)c2ccc(N3C(=O)CCC3c3ccc(F)cc3F)nc2N1C1CC1` (single isomer, unassigned) [Example A7-P3, 4-cyclopropyl-6-(2-(2,4-difluorophenyl)-5-oxopyrrolidin-1-yl)-1,3-dimethyl-3,4-dihydropyrido[2,3-b]pyrazin-2(1H)-one] and `Cc1ccc(C2CCC(=O)N2c2ccc3c(n2)N(C2CC2)C(C)C(=O)N3C)cc1` (single isomer, unassigned) [Example A8-P3, 4-cyclopropyl-6-(2-(4-methylphenyl)-5-oxopyrrolidin-1-yl)-1,3-dimethyl-3,4-dihydropyrido[2,3-b]pyrazin-2(1H)-one] cannot be ordered by IC50: ≤ 0.01 µM for the first, ≤ 0.01 µM for the second.

`Cc1cc(N2C(=O)CCC2c2ccccc2)nc2c1N(C)C(=O)C(C)N2C1CC1` (single isomer, unassigned) [Example A9-P1-2, 4-cyclopropyl-1,3,8-trimethyl-6-(2-oxo-5-phenylpyrrolidin-1-yl)-3,4-dihydropyrido[2,3-b]pyrazin-2(1H)-one] gave an IC50 of 0.01 to 0.1 µM.
